Reference: article PMC4377863, “Salacinol and Related Analogs: New Leads for Type 2 Diabetes Therapeutic Candidates from the Thai Traditional Natural Medicine Salacia chinensis” (Nutrients, 2015)
Marks after values point to notes of the source that are not given here.

Tests used:
[1] = target: human small intestinal maltase; assay: Human intestinal α-glucosidase (maltase) inhibition, small intestinal microsome; assay type: biochemical; conditions: substrate maltose, pH 6.0, 37 °C, 30 min
Description: The experiment was performed according to the method as described in our previous report. A human small intestinal microsome (batch MIC318017, purchased from BIOPREDIC International, Rennes, France) in 0.1 M maleate buffer (pH 6.0) was used to determine the activity of maltase, a small intestinal α-glucosidase. A test sample was dissolved in dimethyl sulfoxide (DMSO) and the resulting solution was diluted with 0.1 M maleate buffer to prepare the test sample solution (concentration of DMSO: 10%). A substrate solution in the maleate buffer (maltose: 74 mM, 50 μL), the test sample solution (25 μL), and the enzyme solution (25 μL) were mixed at 37 °C for 30 min and then immediately heated in boiling water for 2 min to stop the reaction. The glucose concentrations were determined using the glucose-oxidase method. The final concentration of DMSO in the test solution was 2.5% and no influence of DMSO on the inhibitory activity was detected. The intestinal α-glucosidase inhibitors (acarbose, voglibose, and miglitol) were used as reference compounds.

[2] = Stability in artificial gastric juice; assay type: in vitro ADME; conditions: artificial gastric juice pH 1.2 with pepsin, 37 °C, SCE 1.0 mg/mL
Description: A solution of SCE (1.0 mg/mL) in artificial gastric juice (components: 0.2% (w/v) NaCl and 0.32% (w/v) pepsin from porcine, pH adjusted to 1.2 with HCl) was incubated at 37 °C for 1.0 or 3.0 h. Each reaction mixture was neutralized with 1 M NaOH and then filtered by ultrafiltration using Amicon Ultra (MWCO 3000 Da, Millipore, MA, USA). The sulfonium contents (1–4) of each filtrate were measured by LCMS as previously described.

[3] = In situ intestinal absorption, rat ligated intestinal loop model; assay type: in vivo; conditions: rat ligated jejunal loop
Description: Five-week-old male SD rats (fasting period, 18 h) were anesthetized with thiobutabarbital (80 mg/kg, i.p.), and then ligated jejunal loops (ca. 20 cm) were prepared. The aqueous SCE solution (300 mg/2 mL/body) was injected and indwelled into the loop for 0.5 or 2.0 h. The indwelling solution was collected using saline and the sulfonium contents (1–4) were measured by LCMS as previously described. Miglitol (1 mg/2 mL/body) and D-glucose (10 mg/2 mL/body) were used as reference compounds. The content of miglitol in corresponding indwelling solution was also measured under the following LCMS conditions: column, Inertsil ODS-3 (5 μm, 2.1 × 150 mm; GL Sciences, Tokyo, Japan); column temperature, 40 °C; mobile phase, 5 mM nonafluorovaleric acid-MeOH (95:5, v/v); flow rate, 0.2 mL/min; ionization, ESI-positive mode; SIM, m/z 208; Injection volume, 1 μL; retention time (tR), 7.3 min. Glucose concentration was determined by using the glucose-oxidase method.

starch-loaded rats = assay: Blood glucose levels in starch-loaded rats; assay type: in vivo, rat; conditions: for Blood Glucose 0 h: 0 h after starch; for Blood Glucose 0.5 h: 0.5 h after starch; for Blood Glucose 1.0 h: 1.0 h after starch; for Blood Glucose 2.0 h: 2.0 h after starch; for Blood Glucose 3.0 h: 3.0 h after starch
Description: Five-week-old male SD rats were housed for one week in metal cages. After overnight fasting (20 h), the rats were orally administered a 5% (w/v) α-starch solution (1 g/kg) with or without a sample (SCE: 10–300 mg/kg, 1: 0.15–1.48 mg/kg, 3: 0.21–2.06 mg/kg, and 4: 0.07–0.68 mg/kg) using a stomach tube. At 0, 0.5, 1.0, 2.0, and 3.0 h after the administration of α-starch, blood samples were taken from the tail vein and immediately subjected to the measurement of blood glucose using the glucose oxidase method. As a baseline, distilled water was administrated to rats as a “normal group”. Median effective dose (ED50) was determined by plotting the inhibition rate of incremental AUC0–2 h (iAUC0–2 h; the AUC above baseline) versus corresponding inhibitor dosage.

O=S(=O)([O-])O[C@@H]([C@H](O)[C@H](O)[C@@H](O)CO)[C@H](O)C[S+]1C[C@@H](O)[C@H](O)[C@H]1CO (some centres unmarked) [compound 3, kotalanol]
IC50 [1]: 3.9 µM
Relative Content 0 h ([2]; 0 h): 100.0 ± 4.1 % of 0 h
Relative Content 1.0 h ([2]; 1.0 h): 97.3 ± 6.6 % of 0 h
Relative Content 3.0 h ([2]; 3.0 h): 91.4 ± 4.6 % of 0 h
Residual rate, Relative Content 0 h ([3]; 0 h): 100.0 ± 3.0 % of 0 h
Residual rate, Relative Content 0.5 h ([3]; 0.5 h): 98.1 ± 2.6 % of 0 h
Residual rate, Relative Content 2.0 h ([3]; 2.0 h): 99.7 ± 2.7 % of 0 h
iAUC0-2 h (starch-loaded rats; 0.15 mg/kg p.o.): 47.7 ± 10.2 mg·h/dL
Blood Glucose 0 h (starch-loaded rats; 0.15 mg/kg p.o.): 67.3 ± 2.5 mg/dL
Blood Glucose 0.5 h (starch-loaded rats; 0.15 mg/kg p.o.): 110.1 ± 6.1 mg/dL
Blood Glucose 1.0 h (starch-loaded rats; 0.15 mg/kg p.o.): 100.0 ± 6.8 mg/dL
Blood Glucose 2.0 h (starch-loaded rats; 0.15 mg/kg p.o.): 68.0 ± 4.4 mg/dL
Blood Glucose 3.0 h (starch-loaded rats; 0.15 mg/kg p.o.): 61.6 ± 2.5 mg/dL
iAUC0-2 h (starch-loaded rats; 0.49 mg/kg p.o.): 29.1 ± 6.1 mg·h/dL
Blood Glucose 0 h (starch-loaded rats; 0.49 mg/kg p.o.): 69.9 ± 1.9 mg/dL
Blood Glucose 0.5 h (starch-loaded rats; 0.49 mg/kg p.o.): 94.9 ± 3.1 ^b mg/dL
Blood Glucose 1.0 h (starch-loaded rats; 0.49 mg/kg p.o.): 86.5 ± 4.1 mg/dL
Blood Glucose 2.0 h (starch-loaded rats; 0.49 mg/kg p.o.): 65.1 ± 4.6 mg/dL
Blood Glucose 3.0 h (starch-loaded rats; 0.49 mg/kg p.o.): 62.1 ± 3.2 mg/dL
iAUC0-2 h (starch-loaded rats; 1.48 mg/kg p.o.): 21.4 ± 5.7 ^b mg·h/dL
Blood Glucose 0 h (starch-loaded rats; 1.48 mg/kg p.o.): 69.9 ± 2.3 mg/dL
Blood Glucose 0.5 h (starch-loaded rats; 1.48 mg/kg p.o.): 84.1 ± 3.6 ^b mg/dL
Blood Glucose 1.0 h (starch-loaded rats; 1.48 mg/kg p.o.): 81.0 ± 3.0 ^b mg/dL
Blood Glucose 2.0 h (starch-loaded rats; 1.48 mg/kg p.o.): 68.8 ± 3.9 mg/dL
Blood Glucose 3.0 h (starch-loaded rats; 1.48 mg/kg p.o.): 66.3 ± 1.8 mg/dL
ED50 (starch-loaded rats; Rattus norvegicus, po, starch-loaded SD rats, p.o., read-out: ED50 (inhibition of iAUC0-2 h)): 0.62 mg/kg
